The source of these data is PMC4588578, “Targeting substrate-site in Jak2 kinase prevents emergence of genetic resistance” (Scientific Reports, 2015).

The subject of data set [1] is BaF3 cells expressing ruxolitinib-resistant JAK2-V617F variants. The data set is described as follows: Dose-response analyses with ruxolitinib-resistant variants. The note with it: with or without IL-3. It counts as cell-based.
Description: Ba/F3 cells expressing mutant BCR-ABL proteins were plated in 96-well plates (0.5–1 × 10^4 cell per well) in RPMI medium containing 10% FCS and lacking IL-3. Kinase inhibitors were included in the media at varying concentrations. After 60 hours, the number of viable cells was assessed using WST-1 reagent (Roche Applied Science, USA), according to the manufacturer’s specifications. Assays were performed in quadruplicate.
In data set [2] the test system is BaF3 cells expressing JAK2-V617F/L983F. The data set is described as follows: BaF3 cell proliferation dose-response. Particulars: variant L983F in JAK2-V617F. It counts as cell-based.
The target in data set [3] is T1, JAK2 kinase domain L983F (Mus musculus, UniProt Q62120, L983F).
T1 construct: made in house; host or cells: Spodoptera frugiperda Sf9 (baculovirus)
The data set is described as follows: Dose response of purified kinase domain. It counts as biochemical. As to the method: (§1) Proteins were expressed in Spodoptera frugiperda, Sf9 cells. […] Each point mutants was confirmed by sequence analysis. […] All purification steps were carried out at 4 °C.

The target of data set [4] is T2, JAK2 kinase domain E930G (Mus musculus, UniProt Q62120, E930G).
T2 construct: made in house; host or cells: Spodoptera frugiperda Sf9 (baculovirus)
Description: Dose response of purified kinase domain. Format: biochemical. As to the method: as §1

The test system of data set [5] is BaF3 cells expressing JAK2-V617F/Y931C/W1038C. The data set is described as follows: BaF3 cell proliferation dose-response. Format: cell-based. Particulars: Mus musculus, BaF3, read-out: IC50, cell proliferation.
For data set [6], the system named is BaF3 cells expressing JAK2-V617F/Y931C/S1025C. The data set is described as follows: BaF3 cell proliferation dose-response. It counts as cell-based. Particulars: Mus musculus, BaF3, read-out: IC50, cell proliferation.
Data set [7] has as its system BaF3 cells expressing JAK2-V617F. Particulars: read-out: IC50, cell proliferation.
Data set [8] has the same test system. Description: Soft-agar colony assay. Format: cell-based.
Data set [9] deals with BaF3 cells expressing JAK2-V617F/Y931C/Y1045*. The data set is described as follows: BaF3 cell proliferation dose-response. Format: cell-based. Particulars: Mus musculus, BaF3, read-out: IC50, cell proliferation.
Data set [10] concerns BaF3 cells expressing JAK2-V617F/Y931C/V1075F. The data set is described as follows: BaF3 cell proliferation dose-response. Particulars: Mus musculus, BaF3, read-out: IC50, cell proliferation. Format: cell-based.
Data set [11] deals with TEL-JAK3-expressing BaF3 cells. The data set is described as follows: Soft-agar colony assay. It counts as cell-based.
For data set [12], the system named is BaF3 cells expressing JAK2-V617F/Y931C/L1026F. The data set is described as follows: BaF3 cell proliferation dose-response. Particulars: Mus musculus, BaF3, read-out: IC50, cell proliferation. It counts as cell-based.
The test system of data set [13] is BaF3 cells expressing JAK2-V617F/Y931C/F1061W. The data set is described as follows: BaF3 cell proliferation dose-response. It counts as cell-based. Particulars: Mus musculus, BaF3, read-out: IC50, cell proliferation.
Data set [14] relates to BaF3 cells expressing JAK2-V617F/Y931C/Y1045W. Description: BaF3 cell proliferation dose-response. It counts as cell-based. The note with it: Mus musculus, BaF3, read-out: IC50, cell proliferation.
The test system of data set [15] is BaF3 cells expressing JAK2-V617F/Y931C/F1019L. The data set is described as follows: BaF3 cell proliferation dose-response. The note with it: Mus musculus, BaF3, read-out: IC50, cell proliferation. Format: cell-based.
For data set [16], the system named is BaF3 cells expressing JAK2-V617F/Y931C/I1018F. The data set is described as follows: BaF3 cell proliferation dose-response. It counts as cell-based. The note with it: Mus musculus, BaF3, read-out: IC50, cell proliferation.
For data set [17], the system named is phospho-STAT5 in JAK3-transduced cells. Description: Phospho-STAT5 inhibition in transduced BaF3 cells. Format: cell-based. The note with it: Mus musculus.
For data set [18], the system named is BaF3 cells expressing JAK2-V617F. The data set is described as follows: cells. Particulars: Mus musculus, BaF3, read-out: IC50, cell proliferation, BaF3 JAK2-V617F.
The subject of data set [19] is phospho-STAT5 in BaF3 cells expressing JAK2-V617 variant L983F. Description: Immunoblot analysis of phospho-STAT5. It counts as cell-based.
Data set [20] has as its system BaF3 cells expressing JAK2-V617F/Y931C/W1020C. The data set is described as follows: BaF3 cell proliferation dose-response. Particulars: Mus musculus, BaF3, read-out: IC50, cell proliferation. It counts as cell-based.
For data set [21], the system named is BaF3 cells expressing JAK2-V617F/Y931C/S1039F. Description: BaF3 cell proliferation dose-response. It counts as cell-based. The note with it: Mus musculus, BaF3, read-out: IC50, cell proliferation.
The subject of data set [22] is phospho-STAT5 in JAK1-transduced cells. Description: Phospho-STAT5 inhibition in transduced BaF3 cells. The note with it: Mus musculus. It counts as cell-based. The procedure: (§2) Assays were performed in quadruplicate.
In data set [23] the test system is BaF3 cells expressing TEL-JAK2. The data set is described as follows: BaF3 cell proliferation dose-response. Format: cell-based. Particulars: receptor-free fully activated JAK2 (TEL-JAK2); data not shown. As to the method: as §2
For data set [24], the system named is BaF3 cells transduced with randomly mutagenized JAK2-V617F. Description: In vitro drug-resistance screen, random mutagenesis. It counts as cell-based. Particulars: ruxolitinib at 1, 2 and 5 μM; fedratinib at 2-fold above IC50. The procedure:
To generate random mutation library of Jak2-V617F, E. coli XL1-red cells were transformed with one μg of JAK2-V617F plasmid DNA. More specifically, 50–100 ng of DNA (more than 100 ng of DNA decreases transformation efficiency) was mixed with 100 μl of competent cells in a pre-chilled polypropylene tube and incubated on ice for 30 min, gently swirling every 5 min. For a good library, four to six tubes of competent cells are used. Cells from each tube were plated on four 10 cm LB-agar plates containing 100-μg/ml ampicillin. Plates were incubated at 37 °C for 18–24 hours. When colonies became visible (18–24 hrs), cells were pooled from each plates and plasmid DNA was isolated using the Qiagen’s midiprep kit. At this stage, the heterogeneity of mutations in the library can be roughly assessed by restriction digestion with a frequent cutter such as Sau3A1 or Taq1 or sequencing.
To select resistant clones of JAK2-V617F, high titer retroviruses were produced as describe. One hundred million native BAF3 cells were transduced with 100 ml of virus supernatants having a viral titer of 0.5–1 × 10^6. […] We observed that the overexpression of EPOR or MPL tend to loose dependence on Jak2 resulting to emergence of false-positives[58]. More specifically, 100 × 10^6 cells were mixed with 100 ml of virus supernatant and 100 ml of RPMI, containing 10% serum and 24 μg/ml of polyberene. […]

The subject of data set [25] is TEL-JAK1-expressing BaF3 cells. The data set is described as follows: Soft-agar colony assay. Format: cell-based.
The test system of data set [26] is BaF3 cells expressing luciferase and JAK2-V617F/L983F. Description: In vivo efficacy, leukemic burden by bioluminescence. The note with it: 100 mg/kg twice daily, IP, two weeks.
For data set [27], the system named is BaF3 cells expressing luciferase and JAK2-V617F. The data set is described as above. The note with it: 100 mg/kg twice daily, IP, two weeks.
On the set-up of data set [28]: method as in PMID 21257798. Particulars: at 100 mg/kg; cited from earlier work.

Where two headings read alike, the source gives them in different places.

T2 sequence (Q62120 849-1124 E930G limits assumed): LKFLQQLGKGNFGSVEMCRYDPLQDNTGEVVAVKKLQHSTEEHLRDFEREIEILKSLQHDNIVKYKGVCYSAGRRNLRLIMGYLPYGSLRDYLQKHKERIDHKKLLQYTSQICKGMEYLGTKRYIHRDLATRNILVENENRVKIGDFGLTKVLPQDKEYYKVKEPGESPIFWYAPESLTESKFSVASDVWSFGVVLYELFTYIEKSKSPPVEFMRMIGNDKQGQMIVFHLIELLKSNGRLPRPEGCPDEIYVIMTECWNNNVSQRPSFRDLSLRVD
T1 sequence (Q62120 849-1124 L983F limits assumed): as the sequence (Q62120 849-1124 E930G limits assumed) above, with G82E, L135F counted along it

With `Cc1cc(Nc2nc(N[C@@H](C)c3ncc(F)cn3)ncc2Cl)n[nH]1` [AZD1480], in data set [1], the “resistance of ruxolitinib-resistant variants” value was “cross-resistance”. Moreover, in data set [2], the “resistance or sensitivity of variant L983F” value is given as “resistance”.

Take `N#CCNC(=O)c1ccc(-c2ccnc(Nc3ccc(N4CCOCC4)cc3)n2)cc1` [CYT-387]: the “resistance of ruxolitinib-resistant variants” value in data set [1] is “cross-resistance”. The “resistance or sensitivity of variant L983F” value in [2] was “full sensitivity”. Moreover, the “resistance or sensitivity of purified kinase domain” value in data set [3] and in data set [4] was “sensitive” throughout.

In the case of `Cc1cnc(Nc2ccc(OCCN3CCCC3)cc2)nc1Nc1cccc(S(=O)(=O)NC(C)(C)C)c1` [fedratinib], the IC50 was 1580 nM in data set [5]; 2310 nM in data set [6]; approximately 900 nM in [7]; 1680 nM in data set [9]; 2250 nM in data set [10]; 1690 nM in [12]. Also, the IC50 is 1980 nM in data set [13]; 2110 nM in data set [14]; 1030 nM in [15]; 1490 nM in data set [16]; more than 5000 nM in data set [17]; 1070 nM in data set [18]. Also, the IC50 in data set [20] is 1010 nM; in data set [21], 1640 nM; in data set [22], more than 10000 nM. The “concentration above which cells failed to grow” value in data set [8] came out at 3 µM. In data set [1], the “resistance of ruxolitinib-resistant variants” value was “complete lack of resistance”. Further, the “concentration up to which colony growth is supported” value was found to be 4 µM in data set [11] and 6 µM in data set [25]. In data set [19], the “phospho-STAT5 inhibition (immunoblot)” value is “dose-dependent inhibition”. For the same molecule, the “increase in hypersensitivity of TEL-JAK2 in comparison to JAK2-V617F” value in data set [23] was ~ 3 fold. The “emergence of resistant clones” value in data set [24] was “did not result in any resistant clones”.

As for `C[C@]12O[C@H](C[C@]1(O)CO)n1c3ccccc3c3c4c(c5c6ccccc6n2c5c31)CNC4=O` [lestaurtinib], the “resistance of ruxolitinib-resistant variants” value in data set [1] is given as “cross-resistance”. For the same molecule, the “resistance or sensitivity of variant L983F” value in [2] was “resistance”.

In general, Cmax refers to the maximum level reached in the sampled fluid or tissue. Turning to `N#CC[C@H](C1CCCC1)n1cc(-c2ncnc3[nH]ccc23)cn1` [ruxolitinib], the figures for the “effect on transplanted cells (leukemic burden)” value in data set [26] and in [27] were “ineffective” and “eradicated”, respectively. In addition, the Cmax in data set [28] is 4.4 µM.
